The results in this text go back to US20260193274A1, “AKT1 MODULATORS” (Alterome Therapeutics, Inc., priority 2022, published 2026).

In this test the target is T1, AKT1-E17K (Homo sapiens, UniProt P31749, E17K).
T1 construct: host or cells: HEK-293 (ATCC CRL-1573)
Nature of the test: NanoBRET Target Engagement (TE) Assay. It counts as cell-based. To be noted: full length AKT E17K NanoLuc fusion in transfected HEK-293 cells; 2 hr equilibration with tracer and compound. From the text: NanoBRET is a highly specific and validated cell-based technique for assessing target engagement (Vasta et al., 2018, Cell Chem Biol. 25(2):206-214). The NanoBRET™ Target Engagement (TE) Intracellular Kinase Assays are based on the NanoBRET™ System (Promega Corporation), an energy transfer technique designed to measure molecular proximity in living cells. The NanoBRET™ TE Assays measure the apparent affinity of test compounds by competitive displacement of the NanoBRET™ tracer compound, which is a cell permeable molecule engineered to be reversibly bound to a NanoLuc® luciferase-kinase fusion expressed in cells. For compound screening, when a test compound binds to the selected kinase, the BRET signal is attenuated. For kinase inhibitors in particular, intracellular target selectivity is fundamental to pharmacological mechanism and allows the proteins of interest to be in the correct cellular confirmation. Although non-cell-based techniques have been developed to measure kinase binding or enzymatic inhibition with accuracy and precision, such approaches can fail to accurately predict engagement of the full-length target protein in the more complex and biologically relevant cellular context (Knight and Shokat, 2005, Chem. Biol. 12, 621-637; Smyth and Collins, 2009, J. Chem. Biol. 2, 131-151). […] Briefly, HEK-293 cells (ATCC Cat #CRL-1573) were used for transfection purposes using FuGENE HD Transfection Reagent (Promega Cat #E2311). All cells were evaluated for viability prior to transfection and optimization of the transfection was done prior to experimentation. Greater than 95% viability was used for all experiments. Following transfection, cells were washed and resuspended in Opti-MEM. NanoBRET assays were performed in white, 384-well plates (Corning) at a density of 2×10^5 cells/well. All example compounds were prepared as concentrated stock solutions in DMSO (Sigma-Aldrich). Compounds are dissolved in DMSO to make 10 mM stock solution. Example compounds were transferred as 40 μL of 10 mM stock solution to a 384 pp-plate (LABCYTE, PP-0200) and diluted in 3-fold, 10-point dilution via transferring […] by Apricot liquid handler. A Labcyte ECHO 550 compound dispenser was used to facilitate compound transfer directly to cells. Cells were equilibrated for 2 hr with energy transfer probes and example compound prior to BRET measurements. The AKTE17K (Promega Cat #NV2421) as well as specific probe (NanoBRET tracer, Promega Cat #N264B) was prepared at a concentration of 20× in tracer dilution buffer (12.5 mM HEPES, 31.25% PEG-400, pH 7.5). For target engagement analysis, the energy transfer probes were added to the cells at concentrations optimized for the target in question (AKT E17K). Following compound incubation, NanoBRET NanoGlo Substrate (Promega Cat #N157D) and Extracellular Nanoluc Inhibitor (Promega Cat #N235C) was added according to the manufacturer's recommended protocol, and luminescence was measured on Envision Reader (Perkin Elmer) Multimode Luminometer equipped with 450 nmBPfilter (donor) and 600 nmLPfilter (acceptor), using 0.5 s integration time. Milli-BRET units (mBU) are calculated by multiplying the raw BRET values by 1000. Apparent tracer affinity values (EC50) were determined using the sigmoidal dose-response (variable slope). Competitive displacement data were then plotted and data were fit to determine the EC50 value for each example compound.
A general note: Bioluminescence resonance energy transfer reports proximity on the nanometre scale.

What is called IC50 is the concentration that inhibits the measured activity by half. A lower IC50 goes with higher potency.

T1 sequence (P31749 whole entry E17K): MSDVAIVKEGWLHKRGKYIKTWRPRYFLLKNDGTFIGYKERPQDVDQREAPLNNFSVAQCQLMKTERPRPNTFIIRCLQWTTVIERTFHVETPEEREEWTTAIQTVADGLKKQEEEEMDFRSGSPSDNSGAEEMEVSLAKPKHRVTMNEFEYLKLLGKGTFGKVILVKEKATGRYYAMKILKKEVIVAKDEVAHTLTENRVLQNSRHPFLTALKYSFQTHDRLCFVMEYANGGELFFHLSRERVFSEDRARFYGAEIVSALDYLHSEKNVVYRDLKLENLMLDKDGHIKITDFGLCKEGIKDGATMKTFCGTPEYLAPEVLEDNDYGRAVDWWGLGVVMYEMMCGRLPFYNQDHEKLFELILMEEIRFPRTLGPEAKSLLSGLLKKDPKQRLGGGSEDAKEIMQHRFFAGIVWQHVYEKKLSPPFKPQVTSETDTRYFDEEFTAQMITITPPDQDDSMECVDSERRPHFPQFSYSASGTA

`N#CN1CCC2(CC1)CCN(Cc1ccc(-n3c(-c4cccnc4N)nc4ccc(-c5ccccc5)nc43)cc1)CC2` [Example 17, 9-(4-(2-(2-Aminopyridin-3-yl)-5-phenyl-3H-imidazo[4,5-b]pyridin-3-yl)benzyl)-3,9-diazaspiro[5.5]undecane-3-carbonitrile] registered an IC50 of 15 to 60 nM. The result for `N#CN1CC2CCC(C1)N2Cc1ccc(-n2c(-c3cccnc3N)nc3ccc(-c4ccccc4)nc32)cc1` [Example 29, 8-(4-(2-(2-Aminopyridin-3-yl)-5-phenyl-3H-imidazo[4,5-b]pyridin-3-yl)benzyl)-3,8-diazabicyclo[3.2.1]octane-3-carbonitrile] reads 15 to 60 nM. In the case of `N#CN1CCCC2(C1)CN(Cc1ccc(-n3c(-c4cccnc4N)nc4ccc(-c5ccccc5)nc43)cc1)C2` [Example 39, 2-(4-(2-(2-Aminopyridin-3-yl)-5-phenyl-3H-imidazo[4,5-b]pyridin-3-yl)benzyl)-2,6-diazaspiro[3.5]nonane-6-carbonitrile], the IC50 was 60 to 600 nM. In turn, `C[C@@H]1CN(Cc2ccc(-n3c(-c4cccnc4N)nc4ccc(-c5ccccc5)nc43)cc2)C[C@@H](C)N1C#N` [Example 26, (2R,6R)-4-(4-(2-(2-Aminopyridin-3-yl)-5-phenyl-3H-imidazo[4,5-b]pyridin-3-yl)benzyl)-2,6-dimethylpiperazine-1-carbonitrile] returned an IC50 of more than 600 nM. `N#CN1CCCC2(CCN(Cc3ccc(-n4c(-c5cccnc5N)nc5ccc(-c6ccccc6)nc54)cc3)CC2)C1` [Example 24, 9-(4-(2-(2-Aminopyridin-3-yl)-5-phenyl-3H-imidazo[4,5-b]pyridin-3-yl)benzyl)-2,9-diazaspiro[5.5]undecane-2-carbonitrile] gave an IC50 of 60 to 600 nM. As for `N#CN1CCCC2(CCN(Cc3ccc(-n4c(-c5cccnc5N)nc5ccc(-c6ccccc6)nc54)cc3)C2)C1` (centres unmarked) [Example 21, 2-(4-(2-(2-Aminopyridin-3-yl)-5-phenyl-3H-imidazo[4,5-b]pyridin-3-yl)benzyl)-2,7-diazaspiro[4.5]decane-7-carbonitrile], the IC50 was more than 600 nM. For `C[C@@H]1CN(Cc2ccc(-n3c(-c4cccnc4N)nc4ccc(-c5ccccc5)nc43)cc2)C[C@H](C)N1C#N` [Example 36, (2S,6R)-4-(4-(2-(2-Aminopyridin-3-yl)-5-phenyl-3H-imidazo[4,5-b]pyridin-3-yl)benzyl)-2,6-dimethylpiperazine-1-carbonitrile], the IC50 is more than 600 nM. The compound `N#CNC1CCCN(Cc2ccc(-n3c(-c4cccnc4N)nc4ccc(-c5ccccc5)nc43)cc2)CC1` (centres unmarked) [Example 30, N-(1-(4-(2-(2-Aminopyridin-3-yl)-5-phenyl-3H-imidazo[4,5-b]pyridin-3-yl)benzyl)azepan-4-yl)cyanamide] returned an IC50 of 15 to 60 nM. `N#CN1CC[C@]2(CCN(Cc3ccc(-n4c(-c5cccnc5N)nc5ccc(-c6ccccc6)nc54)cc3)C2)C1` [Example 40, (S)-7-(4-(2-(2-Aminopyridin-3-yl)-5-phenyl-3H-imidazo[4,5-b]pyridin-3-yl)benzyl)-2,7-diazaspiro[4.4]nonane-2-carbonitrile] came in with an IC50 of less than 15 nM. As for `C[C@H]1CN(Cc2ccc(-n3c(-c4cccnc4N)nc4ccc(-c5ccccc5)nc43)cc2)C[C@H](C)N1C#N` [Example 25, (2S,6S)-4-(4-(2-(2-Aminopyridin-3-yl)-5-phenyl-3H-imidazo[4,5-b]pyridin-3-yl)benzyl)-2,6-dimethylpiperazine-1-carbonitrile], the IC50 was in the range of 60 to 600 nM. The result for `N#CN1CCN(Cc2ccc(-n3c(-c4cccnc4N)nc4ccc(-c5ccccc5)nc43)cc2)CC1` [Example 2, 4-(4-(2-(2-Aminopyridin-3-yl)-5-phenyl-3H-imidazo[4,5-b]pyridin-3-yl)benzyl)piperazine-1-carbonitrile] reads more than 600 nM; that for `N#CN1CC2(CCN(Cc3ccc(-n4c(-c5cccnc5N)nc5ccc(-c6ccccc6)nc54)cc3)CC2)C1` [Example 15, 7-(4-(2-(2-Aminopyridin-3-yl)-5-phenyl-3H-imidazo[4,5-b]pyridin-3-yl)benzyl)-2,7-diazaspiro[3.5]nonane-2-carbonitrile], 15 to 60 nM; that for `N#CN1CC2(CCN(Cc3ccc(-n4c(-c5cccnc5N)nc5ccc(-c6ccccc6)nc54)cc3)C2)C1` [Example 18, 6-(4-(2-(2-Aminopyridin-3-yl)-5-phenyl-3H-imidazo[4,5-b]pyridin-3-yl)benzyl)-2,6-diazaspiro[3.4]octane-2-carbonitrile], 60 to 600 nM. To `N#CN1CC2CCC1CN2Cc1ccc(-n2c(-c3cccnc3N)nc3ccc(-c4ccccc4)nc32)cc1` (centres unmarked) [Example 37, 5-(4-(2-(2-Aminopyridin-3-yl)-5-phenyl-3H-imidazo[4,5-b]pyridin-3-yl)benzyl)-2,5-diazabicyclo[2.2.2]octane-2-carbonitrile] belongs 60 to 600 nM; to `N#CN[C@H]1CCN(Cc2ccc(-n3c(-c4cccnc4N)nc4ccc(-c5ccccc5)nc43)cc2)C1` [Example 7, (S)—N-(1-(4-(2-(2-Aminopyridin-3-yl)-5-phenyl-3H-imidazo[4,5-b]pyridin-3-yl)benzyl)pyrrolidin-3-yl)cyanamide], less than 15 nM; to `N#CNC1CCC2(CC1)CCN(Cc1ccc(-n3c(-c4cccnc4N)nc4ccc(-c5ccccc5)nc43)cc1)C2` (centres unmarked) [Example 8, N-(2-(4-(2-(2-Aminopyridin-3-yl)-5-phenyl-3H-imidazo[4,5-b]pyridin-3-yl)benzyl)-2-azaspiro[4.5]decan-8-yl)cyanamide], 60 to 600 nM. In turn, `N#CNC1CCCCN(Cc2ccc(-n3c(-c4cccnc4N)nc4ccc(-c5ccccc5)nc43)cc2)C1` (centres unmarked) [Example 31, N-(1-(4-(2-(2-Aminopyridin-3-yl)-5-phenyl-3H-imidazo[4,5-b]pyridin-3-yl)benzyl)azepan-3-yl)cyanamide] came in with an IC50 of 60 to 600 nM. With `N#CNC1CC2(CCN(Cc3ccc(-n4c(-c5cccnc5N)nc5ccc(-c6ccccc6)nc54)cc3)CC2)C1` [Example 13, N-(7-(4-(2-(2-Aminopyridin-3-yl)-5-phenyl-3H-imidazo[4,5-b]pyridin-3-yl)benzyl)-7-azaspiro[3.5]nonan-2-yl)cyanamide], the IC50 was less than 15 nM. The compound `C[C@H]1CN(Cc2ccc(-n3c(-c4cccnc4N)nc4ccc(-c5ccccc5)nc43)cc2)CCN1C#N` [Example 32, (S)-4-(4-(2-(2-Aminopyridin-3-yl)-5-phenyl-3H-imidazo[4,5-b]pyridin-3-yl)benzyl)-2-methylpiperazine-1-carbonitrile] yielded an IC50 of more than 600 nM. The result for `C[C@@H]1CN(Cc2ccc(-n3c(-c4cccnc4N)nc4ccc(-c5ccccc5)nc43)cc2)CCN1C#N` [Example 27, (R)-4-(4-(2-(2-Aminopyridin-3-yl)-5-phenyl-3H-imidazo[4,5-b]pyridin-3-yl)benzyl)-2-methylpiperazine-1-carbonitrile] reads more than 600 nM; that for `N#CN[C@@H]1CCCN(Cc2ccc(-n3c(-c4cccnc4N)nc4ccc(-c5ccccc5)nc43)cc2)C1` [Example 9, (R)—N-(1-(4-(2-(2-Aminopyridin-3-yl)-5-phenyl-3H-imidazo[4,5-b]pyridin-3-yl)benzyl)piperidin-3-yl)cyanamide], 15 to 60 nM.

Compound `N#CN1C[C@@H]2CN(Cc3ccc(-n4c(-c5cccnc5N)nc5ccc(-c6ccccc6)nc54)cc3)C[C@@H]2C1` [Example 43, (3aR,6aS)-5-(4-(2-(2-Aminopyridin-3-yl)-5-phenyl-3H-imidazo[4,5-b]pyridin-3-yl)benzyl)hexahydropyrrolo[3,4-c]pyrrole-2(1H)-carbonitrile] registered a half-inhibitory concentration (IC50) of 60 to 600 nM.

In turn, `N#CN1C2CCC1CN(Cc1ccc(-n3c(-c4cccnc4N)nc4ccc(-c5ccccc5)nc43)cc1)C2` [Example 28, 3-(4-(2-(2-Aminopyridin-3-yl)-5-phenyl-3H-imidazo[4,5-b]pyridin-3-yl)benzyl)-3,8-diazabicyclo[3.2.1]octane-8-carbonitrile] displayed an IC50 of 60 to 600 nM.
